The text below walks through data of article PMC6576746, “Rational discovery of dual-indication multi-target PDE/Kinase inhibitor for precision anti-cancer therapy using structural systems pharmacology” (PLoS Computational Biology, 2019).

Holding throughout (test): biochemical
Holding throughout (design): DiscoverX KinomeScan competition binding assay across human kinases; per cent of control at 10 and 100 uM

The target of assay [1] is T1, ASK2 (Homo sapiens, UniProt O95382).
T1 construct: gene MAP3K6
Conditions: competition binding, % of control; read-out: Percent Control (100 uM Levosimendan). The method, boiled down:
(§1)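 KinomeScan competition binding was run across a human kinase panel at 10 μM and 100 μM levosimendan. Results are %control = (test − positive control)/(negative control − positive control) × 100.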

Assay [2] concerns the target DAPK2 (Homo sapiens, UniProt Q9UIK4). The following applies: competition binding, % of control; read-out: Percent Control (100 uM Levosimendan). The method, boiled down:
as §1

Assay [3] has as its target EGFR(G719C) (Homo sapiens, UniProt P00533, G719C). Conditions: competition binding, % of control. A digest of the protocol:
as §1

For assay [4], the target named is EPHA3 (Homo sapiens, UniProt P29320). The following applies: competition binding, % of control; read-out: Percent Control (100 uM Levosimendan). A digest of the protocol: as §1
Chain of EPHA3 (P29320 whole entry): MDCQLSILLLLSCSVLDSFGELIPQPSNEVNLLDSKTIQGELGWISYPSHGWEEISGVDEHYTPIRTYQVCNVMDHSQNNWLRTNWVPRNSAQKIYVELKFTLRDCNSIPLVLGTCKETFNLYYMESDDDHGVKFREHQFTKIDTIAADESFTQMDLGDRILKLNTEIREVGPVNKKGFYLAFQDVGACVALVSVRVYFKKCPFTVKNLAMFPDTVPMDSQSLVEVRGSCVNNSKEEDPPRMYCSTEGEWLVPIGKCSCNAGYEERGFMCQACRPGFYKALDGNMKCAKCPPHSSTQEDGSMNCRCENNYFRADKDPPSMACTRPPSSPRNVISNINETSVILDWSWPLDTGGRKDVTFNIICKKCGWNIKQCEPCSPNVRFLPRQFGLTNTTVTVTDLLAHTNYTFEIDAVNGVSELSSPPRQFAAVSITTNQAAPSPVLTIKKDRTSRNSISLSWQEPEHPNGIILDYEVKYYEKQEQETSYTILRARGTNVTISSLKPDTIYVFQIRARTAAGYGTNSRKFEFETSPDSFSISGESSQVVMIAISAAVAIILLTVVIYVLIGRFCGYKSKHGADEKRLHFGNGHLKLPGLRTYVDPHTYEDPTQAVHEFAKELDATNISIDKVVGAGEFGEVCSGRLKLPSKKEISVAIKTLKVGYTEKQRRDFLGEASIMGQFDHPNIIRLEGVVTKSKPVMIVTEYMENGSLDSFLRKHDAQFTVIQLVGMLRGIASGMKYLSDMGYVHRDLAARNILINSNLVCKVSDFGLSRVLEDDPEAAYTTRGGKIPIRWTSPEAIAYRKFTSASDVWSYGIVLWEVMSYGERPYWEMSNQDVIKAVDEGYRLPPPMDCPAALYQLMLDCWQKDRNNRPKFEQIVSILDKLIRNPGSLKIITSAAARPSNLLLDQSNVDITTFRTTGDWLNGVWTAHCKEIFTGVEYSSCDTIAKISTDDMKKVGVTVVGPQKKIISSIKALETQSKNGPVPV
The target in assay [5] is EPHA4 (Homo sapiens, UniProt P54764). Conditions: competition binding, % of control; read-out: Percent Control (100 uM Levosimendan). A digest of the protocol: as §1
Assay [6] has as its target FGFR3 (Homo sapiens, UniProt P22607). Conditions: competition binding, % of control; read-out: Percent Control (100 uM Levosimendan). The method, boiled down:
as §1

Assay [7] has as its target GRK1 (Homo sapiens, UniProt Q15835). Conditions: competition binding, % of control; read-out: Percent Control (100 uM Levosimendan). A digest of the protocol:
as §1

The target in assay [8] is GRK2 (Homo sapiens, UniProt P25098). The following applies: competition binding, % of control; read-out: Percent Control (100 uM Levosimendan). A digest of the protocol:
as §1

In assay [9] the target is T2, MLCK (Homo sapiens, UniProt Q32MK0).
T2 construct: gene MYLK3
Conditions: competition binding, % of control; read-out: Percent Control (100 uM Levosimendan). The method, boiled down: as §1

Assay [10] concerns the target NEK7 (Homo sapiens, UniProt Q8TDX7). Conditions: competition binding, % of control; read-out: Percent Control (100 uM Levosimendan). A digest of the protocol:
as §1

For assay [11], the target named is PAK2 (Homo sapiens, UniProt Q13177). Conditions: competition binding, % of control; read-out: Percent Control (100 uM Levosimendan). A digest of the protocol:
as §1

Assay [12] addresses PAK3 (Homo sapiens, UniProt O75914). Conditions: competition binding, % of control; read-out: Percent Control (100 uM Levosimendan). A digest of the protocol: as §1
Assay [13] addresses PIK3C2G (Homo sapiens, UniProt O75747). The following applies: competition binding, % of control; read-out: Percent Control (100 uM Levosimendan). A digest of the protocol: as §1
Assay [14] deals with PIKFYVE (Homo sapiens, UniProt Q9Y2I7). Conditions: competition binding, % of control; read-out: Percent Control (100 uM Levosimendan). The method, boiled down: as §1
In assay [15] the target is PLK3 (Homo sapiens, UniProt Q9H4B4). Conditions: competition binding, % of control; read-out: Percent Control (100 uM Levosimendan). A digest of the protocol:
as §1

In assay [16] the target is RET(M918T) (Homo sapiens, UniProt P07949, M918T). The following applies: competition binding, % of control; read-out: Percent Control (100 uM Levosimendan). The method, boiled down: as §1
For assay [17], the target named is T3, RSK2(Kin.Dom.1-N-terminal) (Homo sapiens, UniProt P51812).
T3 construct: gene RPS6KA3; Kin.Dom.1-N-terminal
T3 sequence (P51812 whole entry): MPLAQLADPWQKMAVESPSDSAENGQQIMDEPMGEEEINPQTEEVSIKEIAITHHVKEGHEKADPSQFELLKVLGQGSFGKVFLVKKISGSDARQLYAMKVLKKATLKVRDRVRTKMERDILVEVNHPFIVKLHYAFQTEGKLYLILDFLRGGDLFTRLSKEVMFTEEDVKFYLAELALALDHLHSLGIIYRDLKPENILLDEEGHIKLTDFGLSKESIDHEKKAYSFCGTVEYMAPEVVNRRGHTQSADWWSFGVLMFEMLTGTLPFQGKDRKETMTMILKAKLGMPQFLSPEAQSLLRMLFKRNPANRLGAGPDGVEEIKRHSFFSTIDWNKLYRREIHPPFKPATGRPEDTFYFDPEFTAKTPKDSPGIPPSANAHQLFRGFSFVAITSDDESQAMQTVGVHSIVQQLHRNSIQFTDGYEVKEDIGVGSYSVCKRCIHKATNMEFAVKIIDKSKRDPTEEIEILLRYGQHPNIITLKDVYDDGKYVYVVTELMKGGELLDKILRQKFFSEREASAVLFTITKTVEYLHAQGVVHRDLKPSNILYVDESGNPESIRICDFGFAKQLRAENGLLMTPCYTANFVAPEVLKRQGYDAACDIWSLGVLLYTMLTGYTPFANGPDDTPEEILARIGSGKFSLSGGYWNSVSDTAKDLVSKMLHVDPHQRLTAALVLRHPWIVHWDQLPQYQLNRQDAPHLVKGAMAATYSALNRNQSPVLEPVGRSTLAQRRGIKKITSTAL
Conditions: competition binding, % of control. The method, boiled down:
as §1

Assay [18] deals with TNIK (Homo sapiens, UniProt Q9UKE5). Conditions: competition binding, % of control. The method, boiled down: as §1
Chain of TNIK (Q9UKE5 whole entry): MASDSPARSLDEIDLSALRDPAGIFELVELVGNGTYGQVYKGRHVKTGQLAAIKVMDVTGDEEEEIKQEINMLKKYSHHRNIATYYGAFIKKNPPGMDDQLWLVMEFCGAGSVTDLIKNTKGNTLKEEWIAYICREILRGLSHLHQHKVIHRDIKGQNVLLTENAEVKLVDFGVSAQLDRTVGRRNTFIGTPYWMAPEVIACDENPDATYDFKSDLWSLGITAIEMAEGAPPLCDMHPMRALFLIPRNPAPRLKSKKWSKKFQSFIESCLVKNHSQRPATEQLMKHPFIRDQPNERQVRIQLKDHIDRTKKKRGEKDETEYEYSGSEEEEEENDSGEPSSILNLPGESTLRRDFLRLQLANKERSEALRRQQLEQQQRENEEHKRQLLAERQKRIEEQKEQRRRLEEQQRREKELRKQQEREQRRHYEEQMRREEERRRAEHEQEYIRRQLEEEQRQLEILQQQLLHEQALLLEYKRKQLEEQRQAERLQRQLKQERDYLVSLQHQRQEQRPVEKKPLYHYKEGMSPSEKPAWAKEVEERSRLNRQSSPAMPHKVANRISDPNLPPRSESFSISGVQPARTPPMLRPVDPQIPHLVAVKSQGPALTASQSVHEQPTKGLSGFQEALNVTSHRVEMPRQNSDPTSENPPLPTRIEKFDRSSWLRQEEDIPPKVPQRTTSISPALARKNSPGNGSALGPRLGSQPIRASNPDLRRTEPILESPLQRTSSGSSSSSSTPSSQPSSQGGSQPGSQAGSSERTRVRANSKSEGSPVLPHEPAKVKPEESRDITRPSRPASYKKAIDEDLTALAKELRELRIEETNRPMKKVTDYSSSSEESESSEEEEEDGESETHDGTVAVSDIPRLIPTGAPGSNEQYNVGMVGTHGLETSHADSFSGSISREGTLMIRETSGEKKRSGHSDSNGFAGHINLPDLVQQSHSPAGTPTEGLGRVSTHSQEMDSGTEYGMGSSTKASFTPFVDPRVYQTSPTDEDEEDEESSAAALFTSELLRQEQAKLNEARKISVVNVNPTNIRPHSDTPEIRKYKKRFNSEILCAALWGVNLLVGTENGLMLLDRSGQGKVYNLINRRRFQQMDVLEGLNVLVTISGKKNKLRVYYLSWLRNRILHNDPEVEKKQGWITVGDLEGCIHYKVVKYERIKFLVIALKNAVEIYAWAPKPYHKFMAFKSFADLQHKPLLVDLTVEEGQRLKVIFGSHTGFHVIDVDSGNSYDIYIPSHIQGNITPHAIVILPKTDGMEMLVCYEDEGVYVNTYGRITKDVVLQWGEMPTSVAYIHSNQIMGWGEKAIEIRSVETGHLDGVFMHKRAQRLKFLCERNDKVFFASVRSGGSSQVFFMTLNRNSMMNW
Assay [19] has as its target TXK (Homo sapiens, UniProt P42681). Conditions: competition binding, % of control; read-out: Percent Control (100 uM Levosimendan). The method, boiled down:
as §1

Setting [20] is: read-out: Percent Control (10 uM Levosimendan).
Where [21] appears, read: read-out: Percent Control (100 uM Levosimendan).

Chain of EGFR(G719C) (P00533 whole entry G719C): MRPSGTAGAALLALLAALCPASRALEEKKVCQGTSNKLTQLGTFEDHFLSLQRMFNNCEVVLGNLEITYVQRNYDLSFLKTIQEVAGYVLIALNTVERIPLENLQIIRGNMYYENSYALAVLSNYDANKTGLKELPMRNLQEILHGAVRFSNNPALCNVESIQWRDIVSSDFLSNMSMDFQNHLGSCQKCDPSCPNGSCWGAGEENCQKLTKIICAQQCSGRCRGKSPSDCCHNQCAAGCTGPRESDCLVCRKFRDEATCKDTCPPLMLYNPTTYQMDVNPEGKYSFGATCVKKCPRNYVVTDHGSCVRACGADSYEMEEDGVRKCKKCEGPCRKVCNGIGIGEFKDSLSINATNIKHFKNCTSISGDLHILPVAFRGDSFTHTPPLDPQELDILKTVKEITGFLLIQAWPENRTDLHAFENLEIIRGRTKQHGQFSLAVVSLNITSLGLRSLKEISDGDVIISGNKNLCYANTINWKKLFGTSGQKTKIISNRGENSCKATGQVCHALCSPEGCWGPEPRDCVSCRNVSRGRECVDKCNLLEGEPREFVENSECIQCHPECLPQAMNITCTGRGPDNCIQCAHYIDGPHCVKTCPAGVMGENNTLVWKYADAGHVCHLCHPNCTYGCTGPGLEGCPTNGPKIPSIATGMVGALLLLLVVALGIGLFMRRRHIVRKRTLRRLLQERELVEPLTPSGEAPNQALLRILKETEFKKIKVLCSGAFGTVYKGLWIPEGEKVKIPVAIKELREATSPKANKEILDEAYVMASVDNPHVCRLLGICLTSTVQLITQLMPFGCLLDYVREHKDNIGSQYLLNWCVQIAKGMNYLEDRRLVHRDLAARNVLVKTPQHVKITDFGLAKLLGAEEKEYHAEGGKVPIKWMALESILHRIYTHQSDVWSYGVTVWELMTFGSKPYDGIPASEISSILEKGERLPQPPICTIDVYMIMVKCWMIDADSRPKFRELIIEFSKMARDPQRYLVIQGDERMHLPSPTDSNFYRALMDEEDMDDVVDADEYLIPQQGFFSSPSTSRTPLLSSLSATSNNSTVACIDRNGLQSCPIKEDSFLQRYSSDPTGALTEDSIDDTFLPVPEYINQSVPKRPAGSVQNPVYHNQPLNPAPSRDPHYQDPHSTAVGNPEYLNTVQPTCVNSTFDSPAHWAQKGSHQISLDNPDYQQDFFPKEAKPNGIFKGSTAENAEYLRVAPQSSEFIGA
Chain of FGFR3 (P22607 whole entry): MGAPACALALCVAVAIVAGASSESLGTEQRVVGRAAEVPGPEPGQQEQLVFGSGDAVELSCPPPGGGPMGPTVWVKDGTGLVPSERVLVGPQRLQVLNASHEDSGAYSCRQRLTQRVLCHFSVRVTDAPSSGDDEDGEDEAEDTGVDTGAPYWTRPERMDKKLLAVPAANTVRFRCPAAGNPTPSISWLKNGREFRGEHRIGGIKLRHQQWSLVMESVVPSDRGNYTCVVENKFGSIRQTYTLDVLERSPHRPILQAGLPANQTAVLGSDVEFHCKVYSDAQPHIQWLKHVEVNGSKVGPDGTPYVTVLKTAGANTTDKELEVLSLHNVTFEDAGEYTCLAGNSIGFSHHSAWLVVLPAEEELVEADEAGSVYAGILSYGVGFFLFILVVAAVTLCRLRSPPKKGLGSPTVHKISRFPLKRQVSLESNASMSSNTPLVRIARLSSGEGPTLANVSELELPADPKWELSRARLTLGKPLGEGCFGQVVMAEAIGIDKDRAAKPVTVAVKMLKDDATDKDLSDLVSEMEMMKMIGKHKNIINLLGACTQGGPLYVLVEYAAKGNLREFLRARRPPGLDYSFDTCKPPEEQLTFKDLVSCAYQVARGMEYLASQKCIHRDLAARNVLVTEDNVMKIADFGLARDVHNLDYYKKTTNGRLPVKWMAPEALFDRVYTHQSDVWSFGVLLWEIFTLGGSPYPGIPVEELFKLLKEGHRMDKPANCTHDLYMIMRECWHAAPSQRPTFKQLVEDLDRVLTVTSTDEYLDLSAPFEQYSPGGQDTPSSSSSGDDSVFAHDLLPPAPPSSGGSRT

For `C[C@@H]1CC(=O)NN=C1c1ccc(NN=C(C#N)C#N)cc1` [levosimendan], the remaining binding at 100 µM in [1] turned out to be 80%; in assay [2], 73%; in assay [3] (setting [21]), 10%; in assay [4], 97%; in assay [5], 82%; in assay [6] it was 71%. The remaining binding at 100 µM in assay [7] worked out at 67%; in assay [8], 100%; in [9], 100%; in [10], 100%; in assay [11], 78%; in [12], 99%. Further, the remaining binding at 100 µM in assay [13] was determined as 100%; in [14], 57%; in [15] it was 97%; in assay [16], 90%; in [17] (setting [21]), 35%; in assay [18] (setting [21]), 32%. In addition, in assay [19], the remaining binding at 100 µM was 60%. For the same compound, the remaining binding at 10 µM was 49% in assay [3] (setting [20]), 85% in assay [17] (setting [20]) and 77% in assay [18] (setting [20]).
